According to US9498483B2, “2,3,5-trisubstituted thiophene compounds and uses thereof” (priority 2010, dated 2016):

Experiments:
[1] = system: HCV replicon I389luc-ubi-neo/NS3-3′/ET in ET (Huh-lucubineo-ET) cells; assay: Replicon assay (Biological Example 2), luciferase readout; type: cell-based; conditions: Hepatitis C virus
In short: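 EC50 values come from Hill fits of % inhibition of replicon-driven firefly luciferase, relative to no-compound wells. Compounds were serially diluted (10 points, 3-fold, 0.1 nM–50 μM final, 0.5% DMSO) onto ET replicon cells and read after 48 h.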

HCV polymerase = target: T1, HCV polymerase (Hepatitis C virus genotype 1b, UniProt Q9WMX2); assay: Polymerase assay of Biological Example 1 (IC50 values of Table 3); type: biochemical; conditions: IC50 values of Table 3, polymerase assay of Biological Example 1; read-out: NS5B-enzyme3
T1 construct: (His)6 (C); made in house; host or cells: XL-1 cells (E. coli, by own knowledge)

[2] = ET cells, luciferase activity 48 hours after compound

O=C(O)c1sc(-c2ccc(Cl)cc2)cc1N1C(=O)CN(S(=O)(=O)c2ccc(N3CCCOCC3)nc2)C[C@H]1C1CCCCC1 [Compound 200, 5-(4-Chloro-phenyl)-3-[(R)-2-cyclohexyl-4-(6-[1,4]oxazepan-4-yl-pyridine-3-sulfonyl)-6-oxo-piperazin-1-yl]-thiophene-2-carboxylic acid]
IC50 [1, 2]: ≤ 100 nM
IC50 (HCV polymerase): 1 nM

COc1ccc(S(=O)(=O)N2CC(=O)N(c3cc(C#CC(C)(C)C)sc3C(=O)O)[C@H](C3CCCCC3)C2)cn1 [Compound 191, 3-[(R)-2-Cyclohexyl-4-(6-methoxy-pyridine-3-sulfonyl)-6-oxo-piperazin-1-yl]-5-(3,3-dimethyl-but-1-ynyl)-thiophene-2-carboxylic acid]
IC50 [1, 2]: ≤ 100 nM
IC50 (HCV polymerase): 1 nM

CCN1CCN(c2ccc(S(=O)(=O)N3CC(=O)N(c4cc(-c5ccccc5)sc4C(=O)O)[C@H](C4CCCCC4)C3)cn2)CC1 [Compound 148, 3-{(R)-2-Cyclohexyl-4-[6-(4-ethyl-piperazin-1-yl)-pyridine-3-sulfonyl]-6-oxo-piperazin-1-yl}-5-phenyl-thiophene-2-carboxylic acid]
IC50 [1, 2]: ≤ 100 nM
IC50 (HCV polymerase): 2 nM

O=C(O)c1sc(-c2ccccc2)cc1N1C(=O)CN(S(=O)(=O)c2ccc(N3CCSCC3)nc2)CC1C1CCCCC1 (centres unmarked) [Compound 79, 3-[2-Cyclohexyl-6-oxo-4-(6-thiomorpholin-4-yl-pyridine-3-sulfonyl)-piperazin-1-yl]-5-phenyl-thiophene-2-carboxylic acid]
IC50 [1, 2]: ≤ 100 nM
IC50 (HCV polymerase): 4 nM

O=C(O)c1sc(-c2ccc(F)cc2)cc1N1C(=O)CCCC1C1CCCCC1 (centres unmarked) [Compound 70, 3-(2-Cyclohexyl-6-oxo-piperidin-1-yl)-5-(4-fluoro-phenyl)-thiophene-2-carboxylic acid]
IC50 ([1]; between 100 nM and 5.0 uM): 100 to 5000 nM
IC50 (HCV polymerase): 67 nM

CC(C)(C)C#Cc1cc(N2C(=O)C(CCO)CC[C@H]2C2CCCCC2)c(C(=O)O)s1 (stereo partly drawn) [Compound 342, 3-[(S)-6-Cyclohexyl-3-(2-hydroxy-ethyl)-2-oxo-piperidin-1-yl]-5-(3,3-dimethyl-but-1-ynyl)-thiophene-2-carboxylic acid]
IC50 [1, 2]: ≤ 100 nM
IC50 (HCV polymerase): 18 nM

O=C(O)c1sc(-c2ccccc2)cc1N1C(=O)CN(S(=O)(=O)c2ccc(-c3ccccc3)cc2)CC1C1CCCCC1 (centres unmarked) [Compound 60, 3-[4-(Biphenyl-4-sulfonyl)-2-cyclohexyl-6-oxo-piperazin-1-yl]-5-phenyl-thiophene-2-carboxylic acid]
IC50 ([1]; between 100 nM and 5.0 uM): 100 to 5000 nM
IC50 (HCV polymerase): 9 nM

O=C(O)c1sc(-c2ccccc2)cc1N1C(=O)CN(S(=O)(=O)c2ccc(NC3CCCC3)nc2)CC1C1CCCCC1 (centres unmarked) [Compound 82, 3-[2-Cyclohexyl-4-(6-cyclopentylamino-pyridine-3-sulfonyl)-6-oxo-piperazin-1-yl]-5-phenyl-thiophene-2-carboxylic acid]
IC50 [1, 2]: ≤ 100 nM
IC50 (HCV polymerase): 6 nM

COc1ccc(S(=O)(=O)N2CC(=O)N(c3cc(C#CC(C)(C)C)sc3C(=O)O)[C@H](C3CCCCC3)C2)cc1F [Compound 246, 3-[(R)-2-Cyclohexyl-4-(3-fluoro-4-methoxy-benzenesulfonyl)-6-oxo-piperazin-1-yl]-5-(3,3-dimethyl-but-1-ynyl)-thiophene-2-carboxylic acid]
IC50 [1, 2]: ≤ 100 nM
IC50 (HCV polymerase): 4 nM

Cn1ccc2cc(S(=O)(=O)N3CC(=O)N(c4cc(-c5ccccc5)sc4C(=O)O)C(C4CCCCC4)C3)ccc21 (centres unmarked) [Compound 61, 3-[2-Cyclohexyl-4-(1-methyl-1H-indole-5-sulfonyl)-6-oxo-piperazin-1-yl]-5-phenyl-thiophene-2-carboxylic acid]
IC50 ([1]; between 100 nM and 5.0 uM): 100 to 5000 nM
IC50 (HCV polymerase): 3 nM

COc1ccc(-c2cc(N3C(=O)CCCC3C3CCCCC3)c(C(=O)O)s2)cc1 (centres unmarked) [Compound 114, 3-(2-Cyclohexyl-6-oxo-piperidin-1-yl)-5-(4-methoxy-phenyl)-thiophene-2-carboxylic acid]
IC50 ([1]; between 100 nM and 5.0 uM): 100 to 5000 nM
IC50 (HCV polymerase): 90 nM

COc1ccc(S(=O)(=O)N2CC(=O)N(c3cc(-c4ccccc4)sc3C(=O)O)C(C3CCCCC3)C2)cc1 (centres unmarked) [Compound 103, 3-[2-Cyclohexyl-4-(4-methoxy-benzenesulfonyl)-6-oxo-piperazin-1-yl]-5-phenyl-thiophene-2-carboxylic acid]
IC50 ([1]; between 100 nM and 5.0 uM): 100 to 5000 nM
IC50 (HCV polymerase): 2 nM

CC(O)C1CCC(C2CCCCC2)N(c2cc(C#CC(C)(C)C)sc2C(=O)O)C1=O (centres unmarked) [Compound 316, 3-[6-Cyclohexyl-3-(1-hydroxy-ethyl)-2-oxo-piperidin-1-yl]-5-(3,3-dimethyl-but-1-ynyl)-thiophene-2-carboxylic acid]
IC50 [1, 2]: ≤ 100 nM
IC50 (HCV polymerase): 3 nM

C[C@@H]1CC[C@H](C)N1c1ccc(S(=O)(=O)N2CC(=O)N(c3cc(-c4ccccc4)sc3C(=O)O)[C@H](C3CCCCC3)C2)cn1 [Compound 164, 3-{(R)-2-Cyclohexyl-4-[6-((2S,5R)-2,5-dimethyl-pyrrolidin-1-yl)-pyridine-3-sulfonyl]-6-oxo-piperazin-1-yl}-5-phenyl-thiophene-2-carboxylic acid]
IC50 [1, 2]: ≤ 100 nM
IC50 (HCV polymerase): 1 nM

O=C(O)c1sc(-c2ccccc2)cc1N1C(=O)CN(S(=O)(=O)c2ccc(N3CCCC3)nc2)C[C@@H]1C1CCCCC1 [Compound 136, 3-[(S)-2-Cyclohexyl-6-oxo-4-(6-pyrrolidin-1-yl-pyridine-3-sulfonyl)-piperazin-1-yl]-5-phenyl-thiophene-2-carboxylic acid]
IC50 ([1]; between 100 nM and 5.0 uM): 100 to 5000 nM
IC50 (HCV polymerase): 260 nM

O=C(O)c1sc(-c2ccc(F)cc2)cc1N1C(=O)CN(S(=O)(=O)c2ccc(N3CCCOCC3)nc2)C[C@H]1C1CCCCC1 [Compound 186, 3-[(R)-2-Cyclohexyl-4-(6-[1,4]oxazepan-4-yl-pyridine-3-sulfonyl)-6-oxo-piperazin-1-yl]-5-(4-fluoro-phenyl)-thiophene-2-carboxylic acid]
IC50 [1, 2]: ≤ 100 nM
IC50 (HCV polymerase): 1 nM

CC1(O)CCN(c2ccc(S(=O)(=O)N3CC(=O)N(c4cc(-c5ccc(F)cc5)sc4C(=O)O)[C@H](C4CCCCC4)C3)cn2)C1 (stereo partly drawn) [Compound 288, 3-{(R)-2-Cyclohexyl-4-[6-(3-hydroxy-3-methyl-pyrrolidin-1-yl)-pyridine-3-sulfonyl]-6-oxo-piperazin-1-yl}-5-(4-fluoro-phenyl)-thiophene-2-carboxylic acid]
IC50 [1, 2]: ≤ 100 nM
IC50 (HCV polymerase): 2 nM

C[C@@H]1CN(c2ccc(S(=O)(=O)N3CC(=O)N(c4cc(-c5ccccc5)sc4C(=O)O)[C@H](C4CCCCC4)C3)cn2)CCN1 [Compound 140, 3-{(R)-2-Cyclohexyl-4-[6-((R)-3-methyl-piperazin-1-yl)-pyridine-3-sulfonyl]-6-oxo-piperazin-1-yl}-5-phenyl-thiophene-2-carboxylic acid]
IC50 [1, 2]: ≤ 100 nM
IC50 (HCV polymerase): 1 nM

CC(C)(C)C#Cc1cc(N2C(=O)OCCC2C2CCCCC2)c(C(=O)O)s1 (centres unmarked) [Compound 308, 3-(4-Cyclohexyl-2-oxo-[1,3]oxazinan-3-yl)-5-(3,3-dimethyl-but-1-ynyl)-thiophene-2-carboxylic acid]
IC50 [1, 2]: ≤ 100 nM
IC50 (HCV polymerase): 14 nM

COc1cccc(S(=O)(=O)N2CC(=O)N(c3cc(-c4ccccc4)sc3C(=O)O)[C@H](C3CCCCC3)C2)c1 [Compound 107, 3-[(R)-2-Cyclohexyl-4-(3-methoxy-benzenesulfonyl)-6-oxo-piperazin-1-yl]-5-phenyl-thiophene-2-carboxylic acid]
IC50 ([1]; between 100 nM and 5.0 uM): 100 to 5000 nM
IC50 (HCV polymerase): < 1 nM

CC(C)(C)C#Cc1cc(N2C(=O)[C@@H](O)CC[C@H]2C2CCCCC2)c(C(=O)O)s1 [Compound 322]
IC50 [1, 2]: ≤ 100 nM
IC50 (HCV polymerase): 6 nM

C[C@@H]1COCCN1c1ccc(S(=O)(=O)N2CC(=O)N(c3cc(-c4ccccc4)sc3C(=O)O)[C@H](C3CCCCC3)C2)cn1 [Compound 225, 3-{(R)-2-Cyclohexyl-4-[6-((R)-3-methyl-morpholin-4-yl)-pyridine-3-sulfonyl]-6-oxo-piperazin-1-yl}-5-phenyl-thiophene-2-carboxylic acid]
IC50 [1, 2]: ≤ 100 nM
IC50 (HCV polymerase): 1 nM

CC(C)(C)C#Cc1cc(N2C(=O)CCC[C@@H]2C2CCCCC2)c(C(=O)O)s1 [Compound 34, 3-((R)-2-Cyclohexyl-6-oxo-piperidin-1-yl)-5-(3,3-dimethyl-but-1-ynyl)-thiophene-2-carboxylic acid]
IC50 [1, 2]: ≥ 5000 nM
IC50 (HCV polymerase): 1050 nM

O=C(O)c1sc(-c2ccccc2)cc1N1C(=O)CN(S(=O)(=O)c2ccc(OC(F)F)cc2)CC1C1CCCCC1 (centres unmarked) [Compound 106, 3-[2-Cyclohexyl-4-(4-difluoromethoxy-benzenesulfonyl)-6-oxo-piperazin-1-yl]-5-phenyl-thiophene-2-carboxylic acid]
IC50 ([1]; between 100 nM and 5.0 uM): 100 to 5000 nM
IC50 (HCV polymerase): 14 nM

CC(C)(C)C#Cc1cc(N2C(=O)CN(S(=O)(=O)c3c(Cl)cccc3Cl)C[C@H]2C2CCCCC2)c(C(=O)O)s1 [Compound 282, 3-[(R)-2-Cyclohexyl-4-(2,6-dichloro-benzenesulfonyl)-6-oxo-piperazin-1-yl]-5-(3,3-dimethyl-but-1-ynyl)-thiophene-2-carboxylic acid]
IC50 ([1]; between 100 nM and 5.0 uM): 100 to 5000 nM
IC50 (HCV polymerase): 31 nM

Cc1noc(C)c1S(=O)(=O)N1CC(=O)N(c2cc(-c3ccccc3)sc2C(=O)O)C(C2CCCCC2)C1 (centres unmarked) [Compound 32, 3-[2-Cyclohexyl-4-(3,5-dimethyl-isoxazole-4-sulfonyl)-6-oxo-piperazin-1-yl]-5-phenyl-thiophene-2-carboxylic acid]
IC50 [1, 2]: ≥ 5000 nM
IC50 (HCV polymerase): 241 nM

O=C(O)c1sc(-c2ccccc2)cc1N1C(=O)CNC[C@H]1C1CCCCC1 [Compound 15, 3-((R)-2-Cyclohexyl-6-oxo-piperazin-1-yl)-5-phenyl-thiophene-2-carboxylic acid]
IC50 [1, 2]: ≥ 5000 nM
IC50 (HCV polymerase): 73.5 nM

CC(C)(C)C#Cc1cc(N2C(=O)CN(S(=O)(=O)c3ccc(N4CCOCC4)nc3)CC2C2CCCCC2)c(C(=O)O)s1 (centres unmarked) [Compound 168, 3-[2-Cyclohexyl-4-(6-morpholin-4-yl-pyridine-3-sulfonyl)-6-oxo-piperazin-1-yl]-5-(3,3-dimethyl-but-1-ynyl)-thiophene-2-carboxylic acid]
IC50 [1, 2]: ≤ 100 nM
IC50 (HCV polymerase): 3820 nM
